Source: patent publication US20160297768A1, “NOVEL IMIDAZOLE DERIVATIVES AND THERAPEUTIC USE THEREOF” (INDUSTRY-ACA-DEMIC COORPERATION FOUNDATION, YONSEI …, priority 2013, published 2016)

Key:
A549 cells = assay: Apoptotic activity by MTT analysis, A549 cells; type: cell-based; conditions: Homo sapiens, A549, 12 h, 15 μM of the compound, mean±standard deviation, read-out: Apoptosis (%) A549 cells
HeLa cells = assay: Apoptotic activity by MTT analysis, HeLa cells; type: cell-based; conditions: Homo sapiens, HeLa, 12 h, 15 μM of the compound, mean±standard deviation, read-out: Apoptosis (%) HeLa cells

| SMILES | cytotoxicity at 15 µM (A549 cells) [%] | cytotoxicity at 15 µM (HeLa cells) [%] |
| --- | --- | --- |
| COc1ccc(-c2nc(-c3ccc(C(F)(F)F)cc3C(F)(F)F)n(Cc3ccc(C(=O)NCCOCCOCCN)cc3)c2-c2ccc(OC)cc2)cc1 [Example 44, N-(2-(2-(2-aminoethoxy)ethoxy)ethyl)-4-((2-(2,4-bis(trifluoromethyl)phenyl)-4,5-bis(4-methoxyphenyl)-1H-imidazole-1-yl)methyl)benzamide] | 38 ± 0.68 | 31 ± 0.28 |
| COc1cccc(-c2nc(-c3cc(C(F)(F)F)cc(C(F)(F)F)c3)n(Cc3ccc(C(=N)N)cc3)c2-c2cccc(OC)c2)c1 [Example 182, 4-((2-(3,5-bis(trifluoromethyl)phenyl)-4,5-bis(3-methoxyphenyl)-1H-imidazole-1-yl)methyl)benzimidamide] | 49 ± 0.82 | 49 ± 0.48 |
| COc1ccc(-c2nc(-c3cc(C(F)(F)F)cc(C(F)(F)F)c3)n(Cc3ccc(C(=O)NO)cc3)c2-c2ccc(OC)cc2)cc1 [Example 117, 4-((2-(3,5-bis(trifluoromethyl)phenyl)-4,5-bis(4-methoxyphenyl)-1H-imidazole-1-yl)methyl)-N-hydroxybenzamide] | 43 ± 0.52 | 40 ± 1.67 |
| COc1ccc(-c2nc(-c3cc(C#N)cc(C#N)c3)n(Cc3ccc(C(N)=O)cc3)c2-c2ccc(OC)cc2)cc1 [Example 108, 4-((2-(3,5-dicyanophenyl)-4,5-bis(4-methoxyphenyl)-1H-imidazole-1-yl)methyl)benzamide] | 2 ± 0.8 | 12 ± 1.26 |
| COc1ccc(-c2nc(-c3cc(C(F)(F)F)cc(C(F)(F)F)c3)n(Cc3ccc(C(=O)NCCCCCCCCCN)cc3)c2-c2ccc(OC)cc2)cc1 [Example 194] | 80 ± 1.33 | 84 ± 2.01 |
